Results: US5071848A, “Tricyclic quinoline antineoplastic agents” (Abbott Laboratories, priority 1989, dated 1991)
≈ marks a conversion by molar mass, not a printed value.

Key:
DNA topoisomerase II = test: DNA Breakage Assay: topoisomerase II-mediated DNA breakage (linearized 32P-labeled PBR 322 plasmid, agarose gel); assay type: biochemical, calf; set-up: key to Topoisomerase II-mediated DNA breakage, extent of breakage: SB: strong breakage; MB: moderate breakage; WB: weak breakage; settings: for Topoisomerase II-mediated DNA breakage, extent of breakage: at the concentration given; for Topoisomerase II-mediated DNA breakage, Concentration: concentration of compound which cleaves the DNA to smaller fragments, 30 minutes incubation
Method: Antitumor activity was assayed using the DNA Breakage Assay described below.
The DNA breakage assay requires two major reagents: DNA topoisomerase II and radiolabeled DNA. DNA topoisomerase II (topo II) was isolated from calf thymus as described by B. D. Holligan, et al. in J. Biol. Chem., 260, 2475-2482 (1985). Pure enzyme or partially purified extracts enriched in topo II activity may be used. PBR 322 plasmid was used as the DNA substrate. This plasmid, which is isolated in the closed circular form, is first linearized using, a restriction enzyme which cuts the plasmid in only one place. The newly exposed ends of the plasmid are then labeled with the radionuclide, 32P, using standard techniques described by T. Maniatis, et al. in "Molecular Cloning", Cold Spring Harbor Press, p. 115 (1982).
The enzyme and the radiolabeled DNA are added together first, then drug is added. After an incubation period of 30 minutes, the mixtures are quenched using 1% SDS. The mixtures are then subjected to agarose gel electrophoresis which separates the full length, linear substrate DNA from any small fragments that might be formed as a consequence of drug action. Smaller fragments run with a higher mobility. The distribution of the DNA species in the gel is assessed by autoradiography as described by T. Maniatis, et al. in "Molecular Cloning", Cold Spring Harbor Press, p. 115 (1982).
DNA breakage activity is assessed based on the level of substrate lost, the level of DNA appearing as smaller pieces running faster in the gel, and the distribution of these smaller pieces in the gel. The last criterion is important since drug-induced DNA cleavage that is enzyme-mediated fragmentation results in specific banding patterns due to the fact that the enzyme binds to specific sequences along the DNA molecule. A definite banding pattern is thus indicative of topo II-mediated cleavage and correlates well with anti-tumor activity.

Hela cells = test: In vitro cytotoxicity assay (three day MTT microtiter assay), Hela; assay type: cell-based; settings: Homo sapiens, 72 h; Hela cells, three days, MTT; read-out: In vitro tumor cell cytotoxicity (IC50), Hela
Method: (§1) IC50 's were measured in a colorimetric assay for cytotoxic activity against cultured cells according to the protocol described below:
(§2) A three day microtiter assay is used to measure the growth inhibition of cultured cells exposed to a range of drug concentrations. Metabolic activity is measured by the cell's ability to reduce the tetrazolium dye, MTT (3-(4,5-dimethylthiazol-2-yl)-2,5-diphenyltetrazolium bromide) to a quantifiable colored end-product, which absorbs at 570 nm in the visible spectrum. Surviving cells reduce the MTT dye.
(§3) Test compounds are dissolved in dimethyl sulfoxide (DMSO) and diluted, first with Earle's Balanced Salt Solution, followed by culture medium, to twice the highest concentration of compound to be tested. From this concentrated stock, two-fold serial dilutions are prepared in 96-well microtiter trays, each well containing twice the desired final concentration of compound. Each concentration is tested in triplicate and compared to triplicate drug-free controls.
(§4) The cells are grown in the same medium used for diluting the compounds. After harvesting by trypsinization*, viable cell counts are determined and cell density is adjusted to 25,000 cells/mL. Inoculum (0.1 mL), containing the cells, is then added to each well for a final concentration of 2,500 cells per well. Addition of the inoculum dilutes the test compounds to the desired final concentration.
(§5) *Adherent cells are harvested by trypsinization as follows:
(§6) 1. Remove the medium by aspiration.
(§7) 2. Rinse cell monolayer twice with Earle's Balanced Salt Solution.
(§8) 3. Add trypsin (0.05%)/EDTA (0.53 mM). For each 25 cm^2 use approximately 0.2 mL of solution, tilt to cover the monolayer, then withdraw trypsin leaving only a thin film of solution. Incubate at room temperature until cell monolayer detaches.
(§9) 4. When the cells have detached as determined by visual and/or microscopic observation, add medium containing fetal calf serum to stop the action of the trypsin and resuspend the cells. Triturate to aid dissociation of cell clumps.
(§10) 5. Determine the number of cells per milliliter by electronic cell counter (e.g. Coulter Counter) or by mixing an aliquot of cell suspension with Trypan Blue (0.4% in normal saline) and counting the viable cells using a hemacytometer.
(§11) Microtiter trays are incubated for three days at 36° C. in a humidified atmosphere containing 5% carbon dioxide.
(§12) After three days, 20 microtiters of 5 mg/mL MTT in phosphate-buffered saline solution is added to each well. Trays are returned to the incubator for two to four hours to allow the surviving cells to reduce the dye. Medium and unreduced dye are removed by aspiration. DMSO is added to each well to dissolve the water insoluble, colored end product of the dye reduction so that it can be measured spectrophotometrically at 570 nm.

[1] = system: P388.D1 leukemia cell line; test: In vitro cytotoxicity assay (three day MTT microtiter assay), P388.D1; assay type: cell-based; settings: Mus musculus, P388D1, 72 h, read-out: In vitro tumor cell cytotoxicity (IC50), P388.D1
Method: The cytotoxity of the compounds of the present invention is illustrated in Table 6. IC50 's were measured in a colorimetric assay for cytotoxic activity against cultured cells according to the protocol described below:
as §2, §3, §4, §5, §6, §7, §8, §9, §10, §11
as §12, with “nm. The IC50 is determined as the concentration of compound tested required to reduce the absorbance at 570 nm to 50% of non-drug treated control values.” for “nm.”
^c P388 D1 is a leukemia cell line.

A549 cell line = test: In vitro cytotoxicity assay (three day MTT microtiter assay), A549; assay type: cell-based; settings: Homo sapiens, 72 h; A549, three days, MTT; read-out: In vitro tumor cell cytotoxicity (IC50), A549
Method: as §1, §2, §3, §4, §5, §6, §7, §8, §9, §10, §11, §12

P388 Leukemia = test: In vivo antitumor activity, P388 Leukemia, increased lifespan; set-up: species or system BDF1 mice; settings: IP, day 1 to day 5, survival monitored 30 days
Method: The in vivo data presented in Table 7 was determined in BDF1 mice for two murine cancer models, using 6 to 10 animals per test group. In the case of Lewis Lung carcinoma (LL) the mice are inoculated subcutaneously (SC) in the axillary region with a puncture in the inguinal area with the tumor on day 0. The compound being tested is administered intraperitoneally (IP) from day 1 to day 9 for a total of nine injections. The tumors are weighed on day 14 and the weight inhibition expressed as the median weight ratio of treated (T) to control (C) tumors. In the case of P388 Leukemia cells, a suspension of diluted ascites fluid (0.1 mL) containing 1×10^6 cells is implanted IP into the mice on day 0 and the compound being tested is administered IP from day 1 to day 5 for a total of five injections. Survival was monitored for 30 days and the increased lifespan expressed as median survival time of treated (T) to control (C) mice.

| Structure (SMILES) | Topoisomerase II-mediated DNA breakage, extent of breakage (DNA topoisomerase II) | Topoisomerase II-mediated DNA breakage, Concentration (DNA topoisomerase II) [µg/mL] | other results |
| --- | --- | --- | --- |
| O=c1[nH]sc2c1c(=O)c1cc(F)c(N3CCNCC3)cc1n2C1CC1 [Example 19, 9-Cyclopropyl-6-fluoro-7-(1-piperazinyl)-2,3,4,9-tetrahydroisothiazolo[5,4-b]quinoline-3,4-dione] | MB | 64 | – |
| CC1CN(c2cc3c(cc2F)c(=O)c2c(=O)[nH]sc2n3C2CC2)CCN1C (centres unmarked) [Example 22] | WB | 128 | – |
| CCn1c2cc3c(cc2c(=O)c2c(=O)[nH]sc21)OCO3 [Example 29, 9-Ethyl-6,7-methylenedioxy-2,3,4,9-tetrahydroisothiazolo[5,4-b]quinoline-3,4-dione] | WB | 128 | – |
| O=c1[nH]sc2c1c(=O)c1cc(F)c(N3CCCC(O)C3)c(F)c1n2C1CC1 (centres unmarked) [Example 9] | SB | 32 | IC50 [1]: 2.05 µg/mL (≈ 5.21 µM); IC50 (A549 cell line): 3.9 µg/mL (≈ 9.91 µM) |
| O=c1[nH]sc2c1c(=O)c1cc(F)c(N3CCC(O)C3)cc1n2C1CC1 (centres unmarked) [Example 23] | WB | 32 to 128 | – |
| NCC1CCN(c2c(F)cc3c(=O)c4c(=O)[nH]sc4n(C4CC4)c3c2F)C1 (centres unmarked) [Example 12] | SB | 32 | IC50 [1]: < 0.05 µg/mL; IC50 (A549 cell line): 0.3 µg/mL (≈ 0.764 µM) |
| CCn1c2s[nH]c(=O)c2c(=O)c2cc(F)c(N3CCNC(C)C3)c(F)c21 (centres unmarked) [Example 15] | MB | 128 | – |
| O=c1[nH]sc2c1c(=O)c1cc(F)c(N3CCC(O)CC3)c(F)c1n2C1CC1 [Example 10] | SB | 32 | IC50 [1]: 0.23 µg/mL (≈ 0.585 µM); IC50 (A549 cell line): 2.9 µg/mL (≈ 7.37 µM); P388 Leukemia % T/C, median lifespan of treated compared to control mice (P388 Leukemia; 12.5 mg/kg): 129%; P388 Leukemia % T/C, median lifespan of treated compared to control mice (P388 Leukemia; 25 mg/kg): 133%; P388 Leukemia % T/C, median lifespan of treated compared to control mice (P388 Leukemia; 50 mg/kg): 133%; P388 Leukemia % T/C, median lifespan of treated compared to control mice (P388 Leukemia; 100 mg/kg): 117% |
| CCn1c2s[nH]c(=O)c2c(=O)c2cc(F)c(N3CCC(N)C3)c(F)c21 (centres unmarked) [Example 17] | WB | 32 to 64 | – |
| O=c1[nH]sc2c1c(=O)c1cc(F)c(NC3CCN(Cc4ccccc4)CC3)c(F)c1n2C1CC1 [Example 13] | – | – | IC50 (Hela cells): 0.55 µg/mL (≈ 1.14 µM) |
| CNC1CCN(c2cc3c(cc2F)c(=O)c2c(=O)[nH]sc2n3C2CC2)C1 (centres unmarked) [Example 25] | WB | 64 | – |
| O=c1[nH]sc2c1c(=O)c1cc(F)c(N3CCCNCC3)c(F)c1n2C1CC1 [Example 7] | SB | 32 | IC50 [1]: 0.2 µg/mL (≈ 0.51 µM) |

Second part, led by results:

| Topoisomerase II-mediated DNA breakage, extent of breakage (DNA topoisomerase II) | Topoisomerase II-mediated DNA breakage, Concentration (DNA topoisomerase II) [µg/mL] | Structure (SMILES) | other results |
| --- | --- | --- | --- |
| MB | 32 | O=c1[nH]sc2c1c(=O)c1cc(F)c(N3CCCCC3)c(F)c1n2C1CC1 [Example 8] | IC50 (Hela cells): 3.9 µg/mL (≈ 10.3 µM) |
| SB | 32 | CN1CCN(c2c(F)cc3c(=O)c4c(=O)[nH]sc4n(C4CC4)c3c2F)CC1 [Example 4] | IC50 (Hela cells): 1.3 µg/mL (≈ 3.31 µM) |
| WB | 64 | O=c1[nH]sc2c1c(=O)c1cc(F)c(N3CCCC3)c(F)c1n2C1CC1 [Example 32] | – |
| SB | 32 | O=c1[nH]sc2c1c(=O)c1cc(F)c(N3CCOCC3)c(F)c1n2C1CC1 [Example 1, 9-Cyclopropyl-6,8-difluoro-7-(1-morpholino)-2,3,4,9-tetrahydroisothiazolo[5,4-b]quinoline-3,4-dione] | IC50 (Hela cells): 7 µg/mL (≈ 18.5 µM); P388 Leukemia % T/C, median lifespan of treated compared to control mice (P388 Leukemia; 31.25 mg/kg): 104%; P388 Leukemia % T/C, median lifespan of treated compared to control mice (P388 Leukemia; 62.5 mg/kg): 100%; P388 Leukemia % T/C, median lifespan of treated compared to control mice (P388 Leukemia; 125 mg/kg): 108%; P388 Leukemia % T/C, median lifespan of treated compared to control mice (P388 Leukemia; 250 mg/kg): 108% |
| MB | 32 to 64 | CCn1c2s[nH]c(=O)c2c(=O)c2cc(F)c(N3CCN(C)CC3)c(F)c21 [Example 16] | – |
| SB | 32 | O=c1[nH]sc2c1c(=O)c1cc(F)c(N3CCSCC3)c(F)c1n2C1CC1 [Example 6] | IC50 [1]: 6.3 µg/mL (≈ 15.9 µM); IC50 (A549 cell line): 12.5 µg/mL (≈ 31.6 µM) |
| MB | 64 | O=c1[nH]sc2c1c(=O)c1cc(F)c(N3CCN(CCO)CC3)c(F)c1n2C1CC1 [Example 5] | IC50 (Hela cells): 4 µg/mL (≈ 9.47 µM); P388 Leukemia % T/C, median lifespan of treated compared to control mice (P388 Leukemia; 2.5 mg/kg): 125%; P388 Leukemia % T/C, median lifespan of treated compared to control mice (P388 Leukemia; 5 mg/kg): 129%; P388 Leukemia % T/C, median lifespan of treated compared to control mice (P388 Leukemia; 10 mg/kg): 142%; P388 Leukemia % T/C, median lifespan of treated compared to control mice (P388 Leukemia; 12.5 mg/kg): 117% |
